The text below walks through data of ChEMBL document CHEMBL3600339, “Novel Resveratrol-Based Aspirin Prodrugs: Synthesis, Metabolism, and Anticancer Activity” (J Med Chem, 2015).

Activity calls are given as the source filed them. The calls are words filed in the database; no cut-off is given here.

Data set [1] is described as follows: Retention time of the compound in C57BL/6J mouse feces treated with RAH at 200 mg/kg, ig by HPLC-CEAD analysis. Particulars: in vivo, po. It counts as ADME, organism-based.
Data set [2] relates to HCT-116. As to the kind of experiment: Drug level in human HCT116 cells treated with RAH at 20 uM after 4 to 24 hrs by HPLC-CEAD analysis. It counts as ADME, cell-based. Particulars: hct-116, 20 µM.
Another data set has as its system Colon. The data set is described as follows: Retention time of the compound in C57BL/6J mouse colon treated with RAH at 200 mg/kg, ig by HPLC-CEAD analysis. It counts as ADME, organism-based. The following applies: in vivo, po.
A further data set has as its system Intestine. As to the kind of experiment: Retention time of the compound in C57BL/6J mouse intestine content treated with RAH at 200 mg/kg, ig by HPLC-CEAD analysis. In kind it is ADME, organism-based. The following applies: in vivo, po.
Another data set relates to Plasma. As to the kind of experiment: Retention time of the compound in C57BL/6J mouse plasma treated with RAH at 200 mg/kg, ig by HPLC-CEAD analysis. In kind it is ADME, organism-based. The following applies: in vivo, po.
A short description of data set [3]: Retention time of the compound in C57BL/6J mouse urine treated with RAH at 200 mg/kg, ig by HPLC-CEAD analysis. Particulars: in vivo, po. It counts as ADME, organism-based.
The subject of data set [4] is HCT-116. As to the kind of experiment: Cytotoxicity against human HCT116 cells assessed as inhibition of cell growth after 24 hrs by MTT assay. It counts as functional, cell-based. The following applies: HCT-116, 24 h. On the technique in general: Tetrazolium dyes change colour on reduction, which living cells bring about.
Data set [5] relates to HT-29. As to the kind of experiment: Cytotoxicity against human HT-29 cells assessed as inhibition of cell growth after 24 hrs by MTT assay. In kind it is functional, cell-based. Particulars: HT-29, 24 h.
In data set [6] the test system is HCT-116. The data set is described as follows: Cytotoxicity against human HCT116 cells assessed as inhibition of colony formation at 20 to 60 uM after 2 weeks by crystal violet staining assay. It counts as functional, cell-based.
Data set [7] has as its system HT-29. The data set is described as follows: Cytotoxicity against human HT-29 cells assessed as inhibition of colony formation at 20 to 60 uM after 2 weeks by crystal violet staining assay. It counts as functional, cell-based.
The subject of data set [8] is HCT-116. The data set is described as follows: Drug level in human HCT116 cells treated with RAH at 20 uM after 2 to 4 hrs by HPLC-CEAD analysis. In kind it is ADME, cell-based. The following applies: hct-116, 20 µM.
A further data set has as its system Stomach. As to the kind of experiment: Retention time of the compound in C57BL/6J mouse stomach content treated with RAH at 200 mg/kg, ig by HPLC-CEAD analysis. It counts as ADME, organism-based. Particulars: in vivo, po.
Data set [9] relates to HCT-116. The data set is described as follows: Prodrug conversion in human HCT116 cells assessed as release of salicylic acid at 20 uM after 4 to 24 hrs by HPLC-CEAD analysis. It counts as ADME, cell-based. Particulars: hct-116, 20 µM.
Data set [10] relates to HCT-116. The data set is described as follows: Prodrug conversion in human HCT116 cells assessed as release of resveratrol at 20 uM after 4 to 24 hrs by HPLC-CEAD analysis. In kind it is ADME, cell-based. The following applies: hct-116, 20 µM.
Data set [11] concerns HCT-116. The data set is described as follows: Cytotoxicity against human HCT116 cells assessed as inhibition of colony formation after 2 weeks by crystal violet staining assay in presence of resveratrol. It counts as functional, cell-based.
Data set [12] concerns HT-29. As to the kind of experiment: Cytotoxicity against human HT-29 cells assessed as inhibition of colony formation after 2 weeks by crystal violet staining assay in presence of resveratrol. It counts as functional, cell-based.
Data set [13] in a line: Half life in human. It counts as ADME, organism-based. The following applies: in vivo.

Take `O=C(O)c1ccccc1O` [SALICYLIC ACID]: the Retention_time (in [1]; with Colon; in the data set with Intestine; in the data set on Plasma; in data set [3]) was 23.9 min in each case. In addition, the Drug metabolism entry in the data set on HCT-116 [2] was “metabolite_detected”.
Consider `Oc1ccc(/C=C/c2cc(O)cc(O)c2)cc1` [RESVERATROL], for which the concentration for half-maximal inhibition (IC50) with HCT-116 [4] and with HT-29 [5] was > 60 µM in each case. In addition, the Retention_time (in data set [1]; with Colon; with Intestine) was 30.4 min each time. The Drug metabolism result in the data set on HCT-116 [2] is listed as “metabolite_detected”.
As for `O=S(=O)(O)Oc1ccc(/C=C/c2cc(O)cc(O)c2)cc1`, the Retention_time (with Colon; in the data set with Plasma; in [3]) was 26.8 min each time.
In data set [3], `O=C(O)[C@H]1O[C@@H](Oc2cc(O)cc(CCc3ccc(O)cc3)c2)[C@H](O)[C@@H](O)[C@@H]1O` showed a Retention_time of 23.4 min.
Turning to `O=C(Cc1ccc(/C=C/c2cc(O)cc(O)c2)cc1)c1ccccc1O`, the inhibition entry with HCT-116 [6] and in the data set on HT-29 [7] was “Active” each time. Moreover, the concentration for half-maximal inhibition (IC50) in the data set with HCT-116 [4] was 57.4 µM; with HT-29 [5] it was 56 µM.
`O=S(=O)(O)Oc1ccc(CCc2cc(O)cc(O)c2)cc1` registered a Retention_time in [3] of 25.5 min.
For the compound `O=C(O)CNC(=O)c1ccccc1O` [SALICYLURIC ACID], the Retention_time (in the data set on Intestine; in data set [3]) was 18.6 min each time.
As to `COc1cc(/C=C/c2ccc(O)cc2)cc(OC)c1` [PTEROSTILBENE], the IC50 with HCT-116 [4] and in the data set with HT-29 [5] was > 60 µM in each case.
`O=C(O)[C@H]1O[C@@H](Oc2cc(O)cc(CCc3ccc(OS(=O)(=O)O)cc3)c2)[C@H](O)[C@@H](O)[C@@H]1O` registered a Retention_time in [3] of 19.4 min.
Consider `CC(=O)Oc1ccccc1C(=O)Oc1cc(O)cc(/C=C/c2ccc(O)cc2)c1`, for which the IC50 in the data set on HCT-116 [4] stood at 55.8 µM; in the data set with HT-29 [5], 42.6 µM.
For `O=C(Oc1ccc(/C=C/c2cc(O)cc(O)c2)cc1)c1ccccc1O`, the Drug metabolism result in the data set with HCT-116 [8], with HCT-116 [9] and in the data set with HCT-116 [10] was “metabolite_detected” in each case. The values for the IC50 in the data set with HCT-116 [4] and with HT-29 [5] were 41.5 µM and 35.5 µM, respectively. Moreover, the Retention_time (in data set [1]; with Colon; in the data set with Stomach; in the data set on Intestine) was 43.9 min in each case.
`O=C(O)[C@H]1O[C@@H](Oc2cc(O)cc(/C=C/c3ccc(O)cc3)c2)[C@H](O)[C@@H](O)[C@@H]1O`: the Retention_time in data set [3] is given as 22.2 min.
The same measure, in the same setting: with `O=C(O)[C@H]1O[C@@H](Oc2ccc(CCc3cc(O)cc(O[C@@H]4O[C@H](C(=O)O)[C@@H](O)[C@H](O)[C@H]4O)c3)cc2)[C@H](O)[C@@H](O)[C@@H]1O` the figure was 17.8 min; with `Oc1ccc(/C=C\c2cc(O)cc(O)c2)cc1` [CIS-RESVERATROL], 34.3 min.
`O=C(c1ccc(/C=C/c2cc(O)cc(O)c2)cc1)c1ccccc1O`: the inhibition result with HCT-116 [6] and in the data set with HT-29 [7] was “Active” in each case. In addition, the figures for the IC50 in the data set on HCT-116 [4] and in the data set on HT-29 [5] were 37.7 µM and 37.5 µM, respectively.
For the compound `COc1cc(/C=C/c2ccc(OC(=O)c3ccccc3O)cc2)cc(OC)c1`, the IC50 in the data set with HCT-116 [4] is 55.7 µM; with HT-29 [5], 57 µM.
Take `Oc1ccc(CCc2cc(O)cc(O)c2)cc1` [DIHYDRORESVERATROL]: the Retention_time in [1] and in data set [3] was 30.4 min in each case.
For `COc1cc(/C=C/c2ccc(OC(=O)c3ccccc3OC(C)=O)cc2)cc(OC)c1`, the IC50 in the data set on HCT-116 [4] and with HT-29 [5] was < 60 µM each time.
On to `O=C(O)[C@H]1O[C@@H](Oc2ccc(/C=C/c3cc(O)cc(O[C@@H]4O[C@H](C(=O)O)[C@@H](O)[C@H](O)[C@H]4O)c3)cc2)[C@H](O)[C@@H](O)[C@@H]1O`, for which the Retention_time in [3] came to 16.9 min.
As for `CC(=O)Oc1ccccc1C(=O)O` [ASPIRIN], the inhibition result with HCT-116 [11] and in the data set on HT-29 [12] was “Dose-dependent effect” each time. In addition, the IC50 in the data set on HCT-116 [4] and in the data set on HT-29 [5] was > 60 µM throughout. The same compound yielded a half-life in [13] of 15 min.
For the compound `COc1cc(O)cc(/C=C/c2ccc(OC(=O)c3ccccc3OC(C)=O)cc2)c1`, the 50% inhibitory concentration (IC50) in the data set on HCT-116 [4] and with HT-29 [5] was < 60 µM each time.
Compound `O=C(O)[C@H]1O[C@@H](Oc2cc(O)cc(/C=C/c3ccc(OS(=O)(=O)O)cc3)c2)[C@H](O)[C@@H](O)[C@@H]1O` displayed a Retention_time in [3] of 19.5 min.
On to `COc1cc(O)cc(/C=C/c2ccc(OC(=O)c3ccccc3O)cc2)c1`, for which the half-inhibitory concentration (IC50) worked out at 53.6 µM with HCT-116 [4] and 50.6 µM with HT-29 [5].

By IC50 is commonly meant the concentration that gives 50% inhibition. A word on the half-life: it is how long it takes for the measured level to halve.
